Holding throughout (format): cell-based
The test system of one data set is GαO(10)-Fyn. Put plainly: Membrane binding of Gαo(10)-Fyn chimera in COS-1 cells. As to conditions: COS-1, 2-bromopalmitate overnight, 5 min label. The protocol:
For analysis of newly synthesized Fyn, cells were cultured overnight as descibed above, then starved for 1 hr in DMEM minus methionine and cysteine containing 2% dialyzed FBS, 0.5% defatted BSA with or without 100 μM 2-bromopalmitate. Cells were labeled for 5 minutes with Trans^35S-Label (ICN, Irvine, Calif.), then fractionated as described above. Gels were treated for 20 minutes with 1M salicylic acid prior to drying. The Gαo(10)-Fyn chimera was labeled for 5 min and GAP-43 Fyn chimera was labeled for 2 hours and fractionated according to the above conditions.
(§1) Each of these three sequences was appended onto the Fyn protein. Gαo(10)-Fyn and GAP43(10)-Fyn are chimeric constructs with the first 10 amino acids of Gαo or GAP-43, respectively, in place of the first 10 amino acids of wt Fyn. These constructs have been previously described (12,13). In addition, the H-Ras tail was fused to the C-terminus of a non-acylated Fyn mutant (G2A,C3SFyn-HRas). This construct contains full length Fyn with mutations in the N-terminal myristoylation and palmitoylation sites, but with the C-terminus of H-Ras available for prenylation and palmitoylation.

Data set [1] has as its system G2A,C3SFyn-HRas and G12V H-Ras. Put plainly: Membrane localization of the two Ras constructs in COS-1 cells. Conditions: COS-1, 2-bromopalmitate overnight. The protocol:
Analysis of the G2A,C3S Fyn-HRas chimera was performed according to the procedure described above. Analysis of the G12V HRas construct was according to the procedure described above, except that the samples were not immunoprecipiated, and were subjected to immunoblotting with anti-HRas antibody.
as §1
Finally, an oncogenic G12V full length H-Ras construct was tested. […] In contrast, 2-bromopalmitate had only a minimal effect on the membrane localization of the two Ras constructs, inducing a 10-20% shift from membrane to cytosol (FIGS. 3C and D). The G12V H-Ras construct migrates as a doublet on a gel. The slower migrating form represents the non-processed cytosolic form of H-Ras, and the faster migrating form represents the processed Ras, which is membrane bound.

The subject of another data set is Lck. Put plainly: DRM (raft) localization in activated Jurkat cells, sucrose gradient: Lck. As to conditions: 100 μM 3 hours, OKT3 activated, control 59%. The procedure: (§2) Isolation of Triton X-100 resistant and soluble fractions was carried out as described previously (12). Isolation of detergent resistant microdomains by sucrose gradients were carried out as follows (19): Jurkat cells (5×10^7) were treated with 2-bromopalmitate, activated with OKT3 mAb as described above, and lysed in 1 ml lysis buffer (25 mM MES pH 6.5, 150 mM NaCl, 0.5% Triton X-100, 1 mM Na3VO4) supplemented with protease inhibitors for 30 minutes at 0° C. After homogenizing 10 times with a loose fit Dounce homogenizer, lysates were mixed with 1 ml 85% sucrose in MBS (25 mM MES pH 6.5, 150 mM NaCl), and overlayered with 6 ml 30% sucrose in MBS, then with 4 ml 5% sucrose in MBS. Following centrifugation for 16 hours at 145,000 g in an SW40 rotor, 1 ml fractions were collected and analyzed by PAGE and immunoblotting with anti-Fyn, anti-LAT, or anti-Lck antibodies.
(§3) The ability of 2-bromopalmitate to inhibit localization of palmitoylated proteins to detergent resistant microdomains in activated Jurkat cells was examined next. Cells were either left untreated or treated with 100 μM 2-bromopalmitate for 3 hours, washed, resuspended in serum-free media, and the TCR was activated with OKT3 mAb. Activated cells were extracted with Triton X-100 containing buffer. […] Each fraction was analyzed by immunoblotting with specific antibodies. […]

A further data set has as its system Fyn. Nature of the data set: DRM (raft) localization in activated Jurkat cells, sucrose gradient: Fyn. Conditions: 100 μM 3 hours, OKT3 activated, control 88%. The procedure:
as §2, §3

The next data set has as its system Vav. Nature of the data set: CD3-mediated tyrosine phosphorylation of Vav in Jurkat cells. As to conditions: 100 μM 3 hours, OKT3. The protocol:
(§4) Jurkat T cells (2×10^6−1×10^7) were centrifuged at 1,000×g for 5 minutes, rinsed with RPMI, resuspended in RPMI supplemented with 2% dialyzed FBS, 0.5% defatted BSA, and incubated with or without 100 μM 2-bromopalmitate at 8×10^5 cells/ml for 3 hours. The cells were centrifuged, washed with RPMI and resuspended in RPMI at 1×10^7−1×10^8 cells/ml. The cells were then activated with anti-CD3 OKT3 mAb (0.3 mg/ml) for 3 min at 37° C., quickly spun down, washed once with cold RPMI and once with cold STE, and lysed in RIPA Samples were solubilized in 1× sample buffer containing 5% β-mercaptoethanol and subjected to SDS-PAGE, followed by immunoblotting with anti-phosphotyrosine antibody (PY99). For analysis of specific proteins, RIPA lysates were immunoprecipitated with the specific antibodies O/N, and immunoblotted for phosphotyrosine. Alternatively, proteins were immunoprecipitated with agarose-conjugated anti phosphotyrosine antibody and blotted for the specific proteins.
(§5) In order to identify the individual proteins whose tyrosine phosphorylation is affected by 2-bromopalmitate, lysates were immunoprecipitated with a panel of specific antibodies, and immunoblotted for phosphotyrosine. Alternatively, lysates were immunoprecipitated with an antiphosphotyrosine antibody, and blotted with antibodies to specific proteins.

For a further data set, the system named is PI3K. Nature of the data set: CD3-mediated tyrosine phosphorylation of PI3K in Jurkat cells. Conditions: 100 μM 3 hours, OKT3. The procedure:
as §4, §5

The subject of a further data set is Jurkat cells. Put plainly: Toxicity control: LAT and actin levels by immunoblot in Jurkat cells. As to conditions: toxicity check, data not shown. The protocol: To verify that the observed inhibition of T cell receptor-mediated tyrosine phosphorylation was not a result of toxicity effects of 2-bromopalmitate, aliquots of each sample were analyzed by immunoblotting with anti-LAT and anti-actin antibodies. The levels of LAT and actin were not affected by 2-bromopalmitate (data not shown). Thus 2-bromopalmitate was able to inhibit signaling through the T cell receptor, as assayed by its ability to inhibit tyrosine phosphorylation of key substrate proteins.
A general note: In western blotting, separated proteins are transferred to a membrane and probed.

As for `CCCCCCCCCCCCCCC(Br)C(=O)O` (stereo not shown) [2-bromopalmitate], the “inhibition of membrane binding of GαO(10)-Fyn” value in the data set on GαO(10)-Fyn is “to the same extent as wt Fyn”. In addition, the “shift from membrane to cytosol of the two Ras constructs” value in data set [1] is on record as 10-20%. For the same molecule, in the data set with Lck, the “Lck found in the rafts” value is listed as 19%. In addition, the “Fyn found in the rafts” value with Fyn is reported as 59%. The same molecule gave a Vav phosphorylation inhibited in the data set with Vav of 40%. For the same molecule, the PI3K phosphorylation inhibited with PI3K is on record as 50%. In addition, the “levels of LAT and actin” value in the data set on Jurkat cells was “not affected”.

These data come from US6890954B1, “Uses of 2-bromopalmitate in the treatment of autoimmune disease” (priority 1999, dated 2005).
